Reference: patent US20240122937A1, “TREATING CANCER IN PATIENT WITH PTEN INACTIVATING MUTATION” (TAIHO PHARMACEUTICAL CO., LTD., priority 2021, published 2024)

Assays:
[1] = Storage stability of crystal form; assay type: physicochemical
Description: Compound (1) can exist in a crystal form having an x-ray diffraction pattern of least 5 diffraction angles)(20±0.2° selected from 7.7°, 9.5°, 10.3°, 12.3°, 14.5°, 15.6°, 16.3°, 17.8°, 18.3°, 19.3°, 20.9°, 22.8°, 24.2°, 25.7°, 26.8°, 27.7°, 29.0°, and 30.1° in a powder x-ray diffraction spectrum. Preferably the crystal form has peaks at diffraction angles)(20±0.2° 7.7°, 9.5°, 10.3°, 12.3°, 14.5°, 15.6°, 16.3°, 17.8°, 18.3°, 20.9°, 22.8°, 24.2°, 25.7°, 26.8°, 27.7°, 29.0°, and 30.1°. […] The method preparing this crystal form is described in U.S. Pat. No. 10,323,044 the content of which is incorporated herein in its entirety.

[2] = test system: tumor in patients with advanced cancer; assay: Phase 2 clinical study, tumor shrinkage / response; assay type: in vivo, human
Description: (§1) The following examples report the results of phase 2 clinical studies where Compound 1 in tablet form was administered orally to patients with different tumor type. In this trial Compound 1 was administered once/day at a dosage of 16 mg/day or 20 mg/day for a 21 day cycle which was repeated as desired. The compound was also administered intermittently on a schedule of 4 days and 3 days off for 21 days per cycle. The cycle was repeated as desired identifies the adverse events in the trials.
The reported shrinkages are over 50% for patient 100-006, about 10% for patients 100-009 and about 5% for patient 200-007.

[3] = Clearance / accumulation in the body; details: in vivo
Description: A 4 days on and 3 days off cycle in a week is one such cycle, the cycle may be modified to accommodate patients having pharmacokinetics allowing for more days on or requiring more days off such as 5 days on and 2 days off or 3 days on and 4 days off or 6 days on and 1 day off, or 6 days on and 1 day off. The 4 days on and 3 days off regimen or a modified regimen may be repeated for a 21-day cycle or a longer cycle. For example, Compound (1) or its pharmaceutically acceptable salt may be administered consecutively on each of the following four days during a 21-day period: days 1 through 4, days 8 through 11, and days 15 through 18, with a prescribed rest on days 5 through 7, days 12 through 14, and days 19 through 21. Such intermittent administration is applicable also to the combination therapies where Compound (1) or its pharmaceutical acceptable salt is administered in combination with one or more agents.

[4] = Phase 2 clinical study, treatment-related adverse events; assay type: in vivo, human
Description: as §1
A total of 8 patients (50%) experienced at least 1 treatment-related event of Grade ≥3; the most frequently reported event of this kind was rash and maculopapular rash (25.0%).

[5] = test system: endometrial cancer harboring PIK3CA mutation; ovarian clear cell carcinoma; assay: Objective response in patients given oral Compound (1); assay type: in vivo, human

Which shelf life indicated ([1]; room temperature, inferred from 40° C. six-month storage) does the source give for `C[C@]1(O)C[C@@](N)(c2ccc(-c3nc4n(c3-c3ccccc3)COc3ccncc3-4)cc2)C1` [Compound (1)] here?
The shelf life indicated was 24 month.

And the stability on storage ([1]; stored at 40° C. for six months)?
The stability on storage was “good stability”.

What about the “patients with tumor shrinkage” value ([2]; of the 15 patients treated, PIDs 100-006, 200-005, 100-009, 200-007) of the same compound?
Its value is 4 patients.

What about the “response in the target lesion (Lymph Node)” value ([2]; patient 100-006) of the same compound?
The value was “complete response”.

And the tumor shrinkage ([2]; patient 100-006)?
Its tumor shrinkage is “over 50%”.

And the tumor shrinkage ([2]; patient 100-009)?
The tumor shrinkage was “about 10%”.

What about the tumor shrinkage ([2]; patient 200-007) of the same compound?
Its tumor shrinkage is “about 5%”.

What about the “clearance from the body” value [3] of the same compound?
Its value is “not cleared from the body quickly but can accumulate in the body”.

What about the “treatment-related Grade ≥3 AE: hyperglycemia” value ([4]; Grade ≥3) of the same compound?
Its value is 12.5%.

What about the “treatment-related Grade ≥3 AE: mucositis oral” value ([4]; Grade ≥3) of the same compound?
The value was 12.5%.

And the “treatment-related Grade ≥3 AE: neutrophil count decreased” value ([4]; Grade ≥3)?
The value was 12.5%.

And the “treatment-related Grade ≥3 AE: rash and maculopapular rash” value ([4]; Grade ≥3)?
Its value is 25.0%.

And the “treatment-related AE: decreased appetite” value ([4]; any grade)?
The value was 18.8%.

And the “treatment-related AE: diarrhea” value ([4]; any grade)?
Its value is 18.8%.

And the “treatment-related AE: fatigue” value ([4]; any grade)?
The value was 37.5%.

What about the “treatment-related AE: hyperglycemia” value ([4]; any grade) of the same compound?
The value was 31.3%.

And the “treatment-related AE: mucositis oral” value ([4]; any grade)?
Its value is 18.8%.

And the “treatment-related AE: nausea” value ([4]; any grade)?
The value was 12.5%.

And the “treatment-related AE: pruritus” value ([4]; any grade)?
The value was 25.0%.

What about the “treatment-related AE: rash and maculopapular rash, patients” value ([4]; any grade, up to 20 mg QD / 24 mg intermittent) of the same compound?
Its value is 62.5%.

What about the safety profile ([4]; up to 20 mg QD and 24 mg intermittent dosing, patients with advanced cancer) of the same compound?
The safety profile was “generally acceptable and clinically manageable”.

And the “patients with objective response” value ([5]; endometrial cancer harboring PIK3CA mutation)?
The value was “one”.

And the “patients with objective response” value ([5]; ovarian clear cell carcinoma)?
Its value is 3 patients.
